In test [1] the target is Sodium-dependent dopamine transporter (Rattus norvegicus, UniProt P23977). Briefly: Ability to inhibit reuptake of dopamine ([3H]DA) at dopamine transporter of rat striatum. The class given is tissue-based.
Test [2] has as its target Norepinephrine transporter (Rattus norvegicus, UniProt Q9WTR4). Nature of the test: Ability to inhibit reuptake of norepinephrine ([3H]NE) at norepinephrine transporter of rat parietal/occipital region.
The target of test [3] is Sodium-dependent serotonin transporter (Rattus norvegicus, UniProt P31652). Briefly: Ability to inhibit reuptake of serotonin ([3H]5-HT) at serotonin transporter of rat midbrian.
Test [4] is described as follows: Inhibition of reuptake of norepinephrine compared to dopamine. The class given is functional.
Test [5] is described as follows: Inhibition of reuptake of norepinephrine compared to serotonin. The class given is functional.
A short description of test [6]: Inhibition of reuptake of serotonin compared to dopamine. The class given is functional.
A short description of test [7]: Ratio of inhibitory activity against reuptake of norepinephrine ([3H]-NE) to that of serotonin ([3H]-5-HT)[…]. The class given is functional.

Sequence of Sodium-dependent dopamine transporter (P23977 whole entry): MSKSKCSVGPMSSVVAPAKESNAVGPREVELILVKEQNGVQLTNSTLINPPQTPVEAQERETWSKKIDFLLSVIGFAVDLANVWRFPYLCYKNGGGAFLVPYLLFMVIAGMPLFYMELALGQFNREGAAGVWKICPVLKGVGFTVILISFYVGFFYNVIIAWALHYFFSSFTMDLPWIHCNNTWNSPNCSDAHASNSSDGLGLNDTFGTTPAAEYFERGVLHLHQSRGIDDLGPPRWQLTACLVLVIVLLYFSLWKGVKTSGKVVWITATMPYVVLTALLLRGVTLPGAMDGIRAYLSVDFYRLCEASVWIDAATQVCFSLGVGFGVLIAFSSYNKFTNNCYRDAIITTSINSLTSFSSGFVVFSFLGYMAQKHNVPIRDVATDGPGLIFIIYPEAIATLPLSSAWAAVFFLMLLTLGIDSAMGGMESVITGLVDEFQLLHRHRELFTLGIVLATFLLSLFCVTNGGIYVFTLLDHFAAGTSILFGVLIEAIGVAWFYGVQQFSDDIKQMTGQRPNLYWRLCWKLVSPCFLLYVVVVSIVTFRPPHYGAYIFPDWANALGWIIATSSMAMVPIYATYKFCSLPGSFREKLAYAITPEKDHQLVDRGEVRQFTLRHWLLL
Sequence of Norepinephrine transporter (Q9WTR4 whole entry): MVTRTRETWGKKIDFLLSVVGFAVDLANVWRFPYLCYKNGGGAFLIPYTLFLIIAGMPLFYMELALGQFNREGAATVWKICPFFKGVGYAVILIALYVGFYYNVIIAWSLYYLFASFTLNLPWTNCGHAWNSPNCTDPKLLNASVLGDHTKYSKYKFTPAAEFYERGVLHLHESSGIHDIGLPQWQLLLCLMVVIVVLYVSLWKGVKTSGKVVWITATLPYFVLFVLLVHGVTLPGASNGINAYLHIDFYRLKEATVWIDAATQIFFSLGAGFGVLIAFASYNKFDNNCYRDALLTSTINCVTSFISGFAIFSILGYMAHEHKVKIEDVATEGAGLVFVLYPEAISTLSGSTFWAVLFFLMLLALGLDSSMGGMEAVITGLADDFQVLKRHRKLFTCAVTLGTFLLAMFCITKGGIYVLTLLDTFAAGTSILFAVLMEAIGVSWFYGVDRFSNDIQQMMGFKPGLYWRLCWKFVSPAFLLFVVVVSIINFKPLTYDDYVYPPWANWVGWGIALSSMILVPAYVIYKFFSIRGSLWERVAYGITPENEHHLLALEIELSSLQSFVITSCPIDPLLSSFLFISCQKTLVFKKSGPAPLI
Sequence of Sodium-dependent serotonin transporter (P31652 whole entry): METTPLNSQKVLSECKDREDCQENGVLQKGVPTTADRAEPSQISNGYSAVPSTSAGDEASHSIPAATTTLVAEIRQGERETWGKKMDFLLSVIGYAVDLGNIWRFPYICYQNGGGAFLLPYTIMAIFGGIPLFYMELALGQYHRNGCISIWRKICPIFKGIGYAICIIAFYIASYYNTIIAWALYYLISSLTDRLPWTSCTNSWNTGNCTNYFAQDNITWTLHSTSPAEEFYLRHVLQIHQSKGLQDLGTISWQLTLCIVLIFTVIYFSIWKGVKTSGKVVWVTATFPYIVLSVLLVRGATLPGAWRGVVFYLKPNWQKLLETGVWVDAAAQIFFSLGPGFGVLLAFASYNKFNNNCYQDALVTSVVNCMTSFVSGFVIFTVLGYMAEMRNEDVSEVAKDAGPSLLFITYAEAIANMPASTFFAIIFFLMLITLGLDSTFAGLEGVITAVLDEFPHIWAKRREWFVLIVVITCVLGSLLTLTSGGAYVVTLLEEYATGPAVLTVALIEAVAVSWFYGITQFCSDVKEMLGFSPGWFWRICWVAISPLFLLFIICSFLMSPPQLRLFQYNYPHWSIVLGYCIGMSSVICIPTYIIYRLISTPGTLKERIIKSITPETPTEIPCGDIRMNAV

A word on the Ki: it is the equilibrium dissociation constant of an inhibitor or competing ligand from its target. A lower Ki goes with a stronger hold on the target. As to `CCCCc1ccc(/C=C2\CN3C4CCC3C(C(=O)OC)C2C4)s1` (stereo unspecified), the inhibitory constant (Ki) in test [1] stood at 4700 nM; in test [2], 364 nM; in test [3], 665 nM. Further, the Ratio in test [4] was found to be 0.08; in test [5] it was 0.55; in test [6] it was 0.14.
As to `COC(=O)C1C2CC3CCC1N3C/C2=C\c1cccs1` (stereo unspecified), the Ratio in test [4] was 0.1; in test [5], 0.01; in test [6], 7.63.
On to `COC(=O)C1C2CC3CCC1N3C/C2=C\c1cc(C)c(Br)s1` (stereo unspecified), for which the Ki came to 1280 nM in test [1], 36.8 nM in test [2] and 6.75 nM in test [3]. Besides, the results for the Ratio in test [4], in test [5] and in test [6] were 0.03, 5.45 and 0.01, respectively.
`COC(=O)C1C2CC3CCC1N3C/C2=C\c1nccs1` (stereo unspecified): the Ki was 5090 nM in test [1], 855 nM in test [2] and over 10000 nM in test [3]. In addition, in test [7], the Ratio worked out at 0.17.
Regarding `COC(=O)C1C2CC3CCC1N3C/C2=C\c1ccsc1` (stereo unspecified), the figures for the inhibitory constant (Ki) in test [1], in test [2] and in test [3] were 485 nM, 33 nM and 3140 nM, respectively. Also, the Ratio in test [4] was 0.07; in test [5], 0.01; in test [6], 6.47.
In the case of `COC(=O)C1C2CC3CCC1N3C/C2=C\c1ccc(Br)s1` (stereo unspecified), the Ki in test [1] was determined as 147 nM; in test [2], 20 nM; in test [3], 36 nM. In addition, the Ratio in test [4] was 0.14; in test [5], 0.57; in test [6], 0.24.
`COC(=O)C1C2CC3CCC1N3C/C2=C\c1ccccn1` (stereo unspecified): the Ki in test [2] amounted to 115 nM; in test [3] it was 3150 nM. Besides, the Ratio worked out at 0.11 in test [4], 0.04 in test [5] and 2.97 in test [6].
On to `COC(=O)C1C2CC3CCC1N3C/C2=C\c1ccc(-c2ccc(Cl)s2)s1` (stereo unspecified), for which the Ki in test [1] was found to be 242 nM; in test [2] it was 58 nM; in test [3] it was 93 nM. Moreover, the Ratio in test [4] amounted to 0.24; in test [5], 0.62; in test [6], 0.38.
`COC(=O)C1C2CC3CCC1N3C/C2=C\c1ccc(OC)s1` (stereo unspecified): the inhibition constant (Ki) in test [1] is over 10000 nM; in test [2] it was 2250 nM; in test [3], 544 nM. Besides, in test [7], the Ratio amounted to 4.12.
As for `COC(=O)C1C2CC3CCC1N3C/C2=C\c1ccc(-c2cccs2)s1` (stereo unspecified), the Ki came to 298 nM in test [1], 98 nM in test [2] and 48 nM in test [3]. Further, the Ratio in test [4] came out at 0.33; in test [5], 2.04; in test [6], 0.16.
Consider `COC(=O)C1C2CC3CCC1N3C/C2=C\c1ccc(-c2ccccc2)s1` (stereo unspecified), for which the inhibition constant (Ki) is 179 nM in test [1], 13.5 nM in test [2] and 71 nM in test [3]. Further, the Ratio in test [4] is 0.08; in test [5] it was 0.19; in test [6], 0.4.
On to `CCCc1ccc(/C=C2\CN3C4CCC3C(C(=O)OC)C2C4)s1` (stereo unspecified), for which the Ki in test [1] was determined as 1600 nM; in test [2], 624 nM; in test [3], 269 nM. In addition, the Ratio in test [4] is 0.39; in test [5], 2.32; in test [6], 0.17.
Regarding `COC(=O)C1C2CC3CCC1N3C/C2=C\c1ccc(-c2ccc(OC)cc2)s1` (stereo unspecified), the Ki in test [1] is 371 nM; in test [2], 10.3 nM; in test [3], 531 nM. The Ratio was determined as 0.03 in test [4], 0.02 in test [5] and 1.43 in test [6].
For `CCc1ccc(/C=C2\CN3C4CCC3C(C(=O)OC)C2C4)s1` (stereo unspecified), the Ki was over 10000 nM in test [1], 2130 nM in test [2] and 346 nM in test [3]. Further, the Ratio in test [7] worked out at 6.16.
Consider `COC(=O)C1C2CC3CCC1N3C/C2=C\c1cnccn1` (stereo unspecified), for which the inhibition constant Ki amounted to 6570 nM in test [1], 1930 nM in test [2] and 7140 nM in test [3]. Besides, the Ratio in test [4] was found to be 0.29; in test [5], 0.27; in test [6] it was 1.09.
For `COC(=O)C1C2CC3CCC1N3C/C2=C\c1ccc(C)s1` (stereo unspecified), the values for the Ratio in test [4], in test [5] and in test [6] were 0.01, 0.03 and 0.44, respectively.
With `COC(=O)C1C2CC3CCC1N3C/C2=C\c1ccc(Cl)nc1` (stereo unspecified), the Ki is over 10000 nM in test [1], 6510 nM in test [2] and 810 nM in test [3]. Besides, the Ratio in test [7] is 8.03.
For the compound `COC(=O)C1C2CC3CCC1N3C/C2=C\c1ccc(I)s1` (stereo unspecified), the Ratio in test [4] is 0.01; in test [5], 0.17; in test [6] it was 0.08.
With `COC(=O)C1C2CC3CCC1N3C/C2=C\c1ccc(-c2ccc(SC)cc2)s1` (stereo unspecified), the Ki stood at 1650 nM in test [1], 273 nM in test [2] and 3320 nM in test [3]. The Ratio in test [4] turned out to be 0.16; in test [5], 0.08; in test [6], 2.01.
Take `COC(=O)C1C2CC3CCC1N3C/C2=C\c1cnc(OC)nc1OC` (stereo unspecified): the Ki is over 10000 nM in test [1], 9450 nM in test [2] and 5140 nM in test [3]. In test [7], the Ratio was 1.84.
For the compound `COC(=O)C1C2CC3CCC1N3C/C2=C\c1cccc(OC)n1` (stereo unspecified), the results for the Ki in test [1], in test [2] and in test [3] were 14000 nM, 308 nM and 477 nM, respectively. Moreover, the Ratio came out at 0.02 in test [4], 0.65 in test [5] and 0.03 in test [6].
With `COC(=O)C1C2CC3CCC1N3C/C2=C\c1cccnc1` (stereo unspecified), the inhibitory constant (Ki) in test [1] is over 10000 nM; in test [2] it was 12700 nM; in test [3] it was 4580 nM. Besides, in test [7], the Ratio worked out at 2.77.
Turning to `COC(=O)C1C2CC3CCC1N3C/C2=C\c1ccc(Cl)s1` (stereo unspecified), the results for the Ki in test [1], in test [2] and in test [3] were 130 nM, 9.7 nM and 53 nM, respectively. The Ratio turned out to be 0.07 in test [4], 0.18 in test [5] and 0.41 in test [6].
